Tests used:
[1] = target: T1, human DPP1 enzyme (Homo sapiens (Human), UniProt P53634); test: Human DPP1 enzyme IC50 assay; assay type: biochemical; conditions: recombinant human DPP1, H-Gly-Arg-AMC substrate 400 μM
Protocol: Test articles were applied to activated human DPP1 enzyme in Assay Buffer (25 mM MES pH 6.0, 50 mM NaCl, 5 mM DTT) in a total reaction volume of 125 μL. 25 μL of compound in Assay Buffer plus 5% DMSO was first added to 50 μL of activated human DPP1 enzyme at a concentration of 1 ng/μL and allowed to pre-incubate for 10 minutes at 37° C. after which 50 μL of 1000 μM H-Gly-Arg-AMC substrate (Bachem; St. Torrance, CA) was added, giving final substrate concentration of 400 μM and a final DMSO concentration of 1%. Substrate cleavage was measured for 90 minutes at 37° C., with fluorescence at Excitation/Emission 350/450 nm measured every 5 minutes. DPP1 concentration was interpolated based on its activity relative to a standard curve of activated human recombinant DPP1 enzyme. IC50 values for each compound were calculated via the XLFit (IDBS Version 5.3.1.3) Add-On to Microsoft Excel using the four parameter fit equation y={A+[(B-A)]/[1+((C/x)^D)]}, which appears as equation number 205 (4 Parameter Logistic Model or Sigmoidal Dose-Response Model) in XLFit. Default constraints were used for each Parameter.

[2] = target: T1, human DPP1 enzyme; test: Human DPP1 enzyme single-point percent inhibition testing (HL-60 lysate, H-Gly-Arg-AMC substrate); assay type: biochemical; conditions: read-out: human DPP1 enzyme % inhibition @ 10 nM, 10 nM compound, 400 μM H-Gly-Arg-AMC, 10 min pre-incubation at 37° C.
Protocol: A crude lysate of HL-60 cells (ATCC; Manassas, VA) was used as a source of human DPP1 enzyme in the assay. Lysate was prepared in 1% Triton X-100 in PBS at a concentration of 20,000 live cells per […] of lysis buffer and was centrifuged at 16,000 rcf for 10 minutes at 4° C., after which supernatant was collected and flash-frozen in liquid nitrogen. Test articles were applied to human DPP1 enzyme in Assay Buffer (25 mM MES pH 6.0, 50 mM NaCl, 5 mM DTT) in a total reaction volume of 125 μL. 25 μL of compound diluted to 50 nM in Assay Buffer plus 5% DMSO was first added to 50 μL of HL-60 lysate diluted to contain a DPP1 enzyme concentration of roughly 1 ng/μL and allowed to pre-incubate for 10 minutes at 37° C. after which 50 μL of 1000 μM H-Gly-Arg-AMC substrate (Bachem; St. Torrance, CA) was added, giving final compound concentration of 10 nM, a final substrate concentration of 400 μM and a final DMSO concentration of 1%. Substrate cleavage was measured for 90 minutes at 37° C., with fluorescence at Excitation/Emission 350/450 nm measured every 5 minutes. DPP1 concentration was interpolated based on its activity relative to a standard curve of activated human recombinant DPP1 enzyme. Percent inhibition at 10 nM was calculated for each test article based on remaining DPP1 activity compared to enzyme activity in wells that received only vehicle control.

[3] = target: DPP1 in HL-60 cells (Homo sapiens (Human), UniProt P53634); test: DPP1 cell single-point percent inhibition testing (HL-60 cells, H-Gly-Phe-AFC substrate); assay type: cell-based; conditions: read-out: DPP1 cell % inhibition @ 5 nM, 5 nM compound, 100 μM H-Gly-Phe-AFC, 60 min pre-incubation at 37° C.
DPP1 in HL-60 cells, sequence (P53634 25-134): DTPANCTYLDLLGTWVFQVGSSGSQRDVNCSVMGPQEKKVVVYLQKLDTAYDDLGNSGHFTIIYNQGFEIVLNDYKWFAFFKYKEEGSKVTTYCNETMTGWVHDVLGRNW
DPP1 in HL-60 cells, sequence (P53634 231-394): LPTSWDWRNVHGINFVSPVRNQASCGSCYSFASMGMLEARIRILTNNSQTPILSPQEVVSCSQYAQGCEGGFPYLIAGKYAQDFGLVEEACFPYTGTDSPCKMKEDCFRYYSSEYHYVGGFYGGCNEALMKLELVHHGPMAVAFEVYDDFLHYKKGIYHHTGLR
DPP1 in HL-60 cells, sequence (P53634 395-463): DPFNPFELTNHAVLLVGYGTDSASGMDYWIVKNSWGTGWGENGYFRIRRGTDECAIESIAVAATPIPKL
Protocol: HL-60 cells (ATCC; Manassas, VA) were maintained in RPMI-1640 supplemented with 20% heat-inactivated FBS and 1× Antibiotic Antimycotic (Cytiva; Marlborough, MA). Media was changed every three to four days and cells were not allowed to exceed 1×10^6 cells per mL. Prior to assay, cells were collected by centrifugation at 500 rcf for 3 minutes, resuspended in RPMI (with no additional supplements) and counted. Cells were diluted in RPMI to a concentration of 5×10^5 live cells per mL and transferred to black 96-well plates for assay, 60 μL per well. Test articles were diluted to 25 nM in RPMI plus 0.5% DMSO, and 20 μL was added to each assay well. Compound was allowed to pre-incubate with cells with gentle shaking at 100 rpm for 60 minutes at 37° C. in a cell culture incubator maintained at 5% CO2, after which 20 μL of 500 μM H-Gly-Phe-AFC cell-permeable substrate (MP Biomedicals; Solon, OH) in RPMI was added to each well, giving final compound concentration of 5 nM, a final substrate concentration of 100 μM and a final DMSO concentration of 0.1%. Plates were returned to the incubator with shaking at 100 rpm for 30 minutes, after which fluorescence was measured at Excitation/Emission 400/505 nm. Percent Inhibition was calculated from RFU values by first subtracting background values (wells in which RPMI was substituted for cells) from each well, and then subtracting background-subtracted RFU derived from wells that received a final concentration of 10 μM brensocatib. This value represents the non-specific substrate cleavage from the HL-60 cells, and the remaining RFU should theoretically be solely the contribution of DPP1 enzyme activity. The final percent inhibition value was calculated for each test article based on remaining RFU compared to RFU from wells that received only vehicle control.

T1 sequence (P53634 25-134): as the sequence (P53634 25-134) above
T1 sequence (P53634 231-394): as the sequence (P53634 231-394) above
T1 sequence (P53634 395-463): as the sequence (P53634 395-463) above

Structure (SMILES)	IC50 [1]	inhibition at 0.01 µM [2]	inhibition at 0.005 µM [3]
CN1CCN[C@@H](CC(=O)N[C@H](C#N)Cc2ccc(-c3ccc4oc(=O)n(C)c4c3)cc2)C1 [Compound 253, N-[(1S)-1-cyano-2-[4-(3-methyl-2-oxo-1,3-benzoxazol-5-yl)phenyl]ethyl]-2-(4-methylpiperazin-2-yl)acetamide]	≥ 15 nM		
CCN1C(=O)Cc2ccc(-c3ccc(C[C@@H](C#N)NC(=O)[C@](C)(N)C4CCCC4)cc3)cc21 [Compound 259B, (2R)-2-amino-N-[(1S)-1-cyano-2-[4-(1-ethyl-2-oxo-3H-indol-6-yl)phenyl]ethyl]-2-cyclopentylpropanamide]	≥ 15 nM		
Cc1cn2cc(-c3ccc(C[C@@H](C#N)NC(=O)[C@](C)(N)C4CCC4)c(F)c3)cc2c(C)n1 [Compound 272A, (R)-2-amino-N—((S)-1-cyano-2-(4-(1,3-dimethylpyrrolo[1,2-a]pyrazin-7-yl)-2-fluorophenyl)ethyl)-2-cyclobutylpropanamide]	≥ 15 nM		
CN(C)C[C@H](O)C(=O)N[C@@H](C#N)Cc1cc2c(cc1F)-c1ccc(C#N)cc1CO2 [Compound 277B, (2S)—N-[(1R)-1-cyano-2-{8-cyano-2-fluoro-6H-benzo[c]chromen-3-yl}ethyl]-3-(dimethylamino)-2-hydroxypropanamide]	≥ 15 nM		
CO[C@@H](CN(C)C)C(=O)NC(C#N)Cc1cc2c(cc1F)-c1cc(C3COC3)c(F)cc1CO2 (stereo partly shown) [Compound 295]		40 to 66.7%	≤ 76.5%
CO[C@@H](CN(C)C)C(=O)N[C@H](C#N)Cc1cc2c(cc1F)-c1ccc(C#N)cc1CO2 [Compound 296]		≤ 40%	≤ 76.5%
CO[C@@H](CN(C)C)C(=O)NC(C#N)Cc1cc2c(cc1F)-c1cc3c(cc1CO2)oc(=O)n3C (stereo partly shown) [Compound 297]		≤ 40%	≤ 76.5%
CO[C@@H](CN(C)C)C(=O)NC(C#N)Cc1cc2c(cc1F)-c1cc(C#N)ccc1CO2 (stereo partly shown) [Compound 298]		≤ 40%	≤ 76.5%
CO[C@@H](CN(C)C)C(=O)NC(C#N)Cc1cc2c(cc1F)-c1ccc3oc(=O)n(C)c3c1CO2 (stereo partly shown) [Compound 299]		≤ 40%	≤ 76.5%
CO[C@@H](CN(C)C)C(=O)N[C@H](C#N)Cc1ccc(-c2ccc3c(c2)C2(CC3)CCN(C)CC2)cc1 [Compound 300]		40 to 66.7%	≤ 76.5%
CO[C@@H](CN(C)C)C(=O)N[C@H](C#N)Cc1ccc(-c2ccc3c(c2)C2(CCCN(C)C2)C(=O)N3C)cc1 (stereo partly shown) [Compound 301]		≤ 40%	76.5 to 93.9%
CO[C@@H](CN(C)C)C(=O)N[C@H](C#N)Cc1ccc(-c2ccc3oc(=O)n(CCN(C)C)c3c2)cc1 [Compound 302]		40 to 66.7%	≤ 76.5%
CO[C@@H](CN(C)C)C(=O)N[C@H](C#N)Cc1ccc(-c2cc3c(C)nc(C)cn3c2)cc1 [Compound 303]		≤ 40%	≤ 76.5%
CO[C@@H](CN(C)C)C(=O)N[C@H](C#N)Cc1ccc(-c2ccc3c(c2)C2(CN(C)C2)OC3=O)cc1 [Compound 304]		≤ 40%	≤ 76.5%
CCN1C(=O)Cc2ccc(-c3ccc(C[C@@H](C#N)NC(=O)[C@H](CN(C)C)OC)cc3)cc21 [Compound 305]		≤ 40%	≤ 76.5%
CO[C@@H](CN(C)C)C(=O)N[C@H](C#N)Cc1ccc(-c2ccc3c(c2)C2(CCN(C)C2)OC3=O)cc1 (stereo partly shown) [Compound 306]		≤ 40%	≤ 76.5%
CO[C@@H](CN(C)C)C(=O)N[C@H](C#N)Cc1ccc(-c2ccc3cnn(C4CCN(C)CC4)c3c2)cc1 [Compound 307]		40 to 66.7%	≤ 76.5%

Structure (SMILES)	IC50 [1]	inhibition at 0.01 µM [2]	inhibition at 0.005 µM [3]
CO[C@@H](CN(C)C)C(=O)N[C@H](C#N)Cc1ccc(-c2ccc3c(c2)C2(CCN(C4COC4)CC2)OC3)cc1 [Compound 308]		≤ 40%	≤ 76.5%
CO[C@@H](CN(C)C)C(=O)N[C@H](C#N)Cc1ccc(-c2ccc3oc(=O)n(CCN4CCOCC4)c3c2)cc1 [Compound 309]		≤ 40%	≤ 76.5%
CO[C@@H](CN(C)C)C(=O)N[C@H](C#N)Cc1ccc(-c2ccc(CN3CCN(C)CC3)cc2)cc1 [Compound 310]		≤ 40%	76.5 to 93.9%
CO[C@@H](CN(C)C)C(=O)N[C@H](C#N)Cc1ccc(-c2ccc3oc(=O)n(C)c3c2)cc1 [Compound 311]		≤ 40%	76.5 to 93.9%
CO[C@@H](CN(C)C)C(=O)N[C@H](C#N)Cc1ccc(-c2ccc3c(n2)CCCN3)cc1 [Compound 312]		≤ 40%	≤ 76.5%
CO[C@@H](CN(C)C)C(=O)N[C@H](C#N)Cc1ccc(-c2ccc3c(c2)C2(CC3)CCN(C)CC2)cc1F [Compound 313]		≥ 66.7%	≤ 76.5%
CO[C@@H](CN(C)C)C(=O)N[C@H](C#N)Cc1ccc(-c2ccc3c(c2)C2(CCCN(C)C2)C(=O)N3C)cc1F (stereo partly shown) [Compound 314]		40 to 66.7%	≥ 93.9%
CO[C@@H](CN(C)C)C(=O)N[C@H](C#N)Cc1ccc(-c2ccc3oc(=O)n(CCN(C)C)c3c2)cc1F [Compound 315]		≥ 66.7%	≤ 76.5%
CO[C@@H](CN(C)C)C(=O)N[C@H](C#N)Cc1ccc(-c2cc3c(C)nc(C)cn3c2)cc1F [Compound 316]		≤ 40%	≤ 76.5%
CO[C@@H](CN(C)C)C(=O)N[C@H](C#N)Cc1ccc(-c2ccc3c(c2)C2(CN(C)C2)OC3=O)cc1F [Compound 317]		40 to 66.7%	≤ 76.5%
CCN1C(=O)Cc2ccc(-c3ccc(C[C@@H](C#N)NC(=O)[C@H](CN(C)C)OC)c(F)c3)cc21 [Compound 318]		40 to 66.7%	76.5 to 93.9%
CO[C@@H](CN(C)C)C(=O)N[C@H](C#N)Cc1ccc(-c2ccc3c(c2)C2(CCN(C)C2)OC3=O)cc1F (stereo partly shown) [Compound 319]		≥ 66.7%	≤ 76.5%
CO[C@@H](CN(C)C)C(=O)N[C@H](C#N)Cc1ccc(-c2ccc3cnn(C4CCN(C)CC4)c3c2)cc1F [Compound 320]		≥ 66.7%	≤ 76.5%
CO[C@@H](CN(C)C)C(=O)N[C@H](C#N)Cc1ccc(-c2ccc3c(c2)C2(CCN(C4COC4)CC2)OC3)cc1F [Compound 321]		40 to 66.7%	≤ 76.5%
CO[C@@H](CN(C)C)C(=O)N[C@H](C#N)Cc1ccc(-c2ccc3oc(=O)n(CCN4CCOCC4)c3c2)cc1F [Compound 322]		40 to 66.7%	≤ 76.5%
CN(C)C[C@H](O)C(=O)NC(C#N)Cc1cc2c(cc1F)-c1cc(C#N)ccc1CO2 (stereo partly shown) [Compound 340]		≤ 40%	

Source: patent publication US20260008758A1, “LINEAR DIPEPTIDYL PEPTIDASE 1 INHIBITORS AND USES THEREOF” (Insmed Incorporated, priority 2024, published 2026)
